The first experiment deals with Adipogenic progenitor cells. As to the kind of experiment: 2D adipogenic differentiation with DMAD components removed or at changed concentration. The class given is cell-based, bovine. The settings on record: 50% of the standard concentration vs 100% control. The method, then:
(§1) At 90% confluence, proliferated MSCs were trypsinized and seeded in a 96-well collagen coated cell culture plate at 30,000 cells/cm^2 in SF-PM. After 24 hours, adipogenesis was induced by changing SF-PM to DMAD (the serum-free differentiation medium as depicted in Example 1), which was maintained on the cells for a period of 12 days with media changes every 3-4 days. As a control differentiation medium (ctrl), DMEM/F12 with 3% FBS was supplemented with 4 conventional adipogenic inducers (IBMX (Sigma Aldrich-15879; 0.5 mM), dexamethasone (Sigma Aldrich-D4902; 10 μM), rosiglitazone (Sigma Aldrich-R2408; 5 μM) and insulin (Peprotech-10-365; 10 μM)). All 4 inducers were used for the first 3 days of culture and only insulin and rosiglitazone were used for the remaining 9 days.
(§2) Cells were fixed on days 6 and 12 with 4% PFA for 20 minutes at room temperature and washed twice with PBS. Cells were then stained with Hoechst (ThermoFisher 493/503, 1:2000) and BODIPY (Sigma Aldrich 345880, 1:1000) in PBS for 30 minutes. Adipogenic differentiation was quantified using the ImageXPress Pico High Content Analyser (HCA; Molecular devices). The parameters measured were total area of lipid, lipid droplet average area and percentage of positive cells. For the percentage of positive cells, the HCA software assigned BODIPY immunoreactivity to the nearest nuclei, (i.e. a positive cell) and the number of BODIPY positive nuclei was then divided by the total number of nuclei.
Adipogenic progenitor cells were cultured as described in Example 2, with the exception that single components (FGF, EGF, insulin, vitamin C, hydrocortisone, BMP4, lipid concentrate, HEPES, putrescine, progesterone) of the DMAD medium (the serum-free differentiation medium as depicted in Example 1) were removed. In addition, different concentrations (50% and 200%) were tested for EGF, FGF, vitamin C, hydrocortisone and progesterone.
Regarding “EGF: recombinant human EGF, AF-100-15 from Peprotech (NSDSECPLSHDGYCLHDGVCMYIEALDKYACNCVVGYIGERCQYRDLKWWELR; Epidermal growth factor; UniProt P01133 971-1023, looked up)”, the “effect on adipogenesis (total lipid area) of decreasing the component's concentration in DMAD” value is reported as “significantly decreased adipogenesis”.

Staying with this experiment, now noted: single component removed from DMAD.
In the case of “EGF: recombinant human EGF, AF-100-15 from Peprotech (NSDSECPLSHDGYCLHDGVCMYIEALDKYACNCVVGYIGERCQYRDLKWWELR; Epidermal growth factor; UniProt P01133 971-1023, looked up)”, the “effect of removing the component from DMAD on percentage of positive cells and total lipid area” value is on record as “significantly decreased differentiation”.

Take `C[C@]12CCC(=O)C=C1CC[C@@H]1[C@@H]2[C@@H](O)C[C@@]2(C)[C@H]1CC[C@]2(O)C(=O)CO` [hydrocortisone]: the “effect of removing the component from DMAD on percentage of positive cells and total lipid area” value is given as “significantly decreased differentiation”.

With “FGF: recombinant human FGF2, 100-18B from Peprotech”, the “effect of removing the component from DMAD on percentage of positive cells and total lipid area” value is on record as “did not have significant effects”.

In the case of `CC(=O)[C@H]1CC[C@H]2[C@@H]3CCC4=CC(=O)CC[C@]4(C)[C@H]3CC[C@]12C` [progesterone], the “effect of removing the component from DMAD on percentage of positive cells and total lipid area” value is recorded as “did not have significant effects”.

As for “insulin: recombinant human insulin, 10-365 from Peprotech”, the “effect of removing the component from DMAD on percentage of positive cells and total lipid area” value was “significantly decreased differentiation”.

Consider `NCCCCN` [putrescine, butane-1,4-diamine], for which the “effect of removing the component from DMAD on percentage of positive cells and total lipid area” value is given as “did not have significant effects”.

As to `O=S(=O)(O)CCN1CCN(CCO)CC1` [HEPES, 4-(2-hydroxyethyl)-1-piperazineethanesulfonic acid], the “effect of removing the component from DMAD on percentage of positive cells and total lipid area” value is recorded as “did not have significant effects”.

The next experiment concerns MSC cells. As to the kind of experiment: PPARγ agonist testing in 2D adipogenic differentiation. The class given is cell-based, bovine. The settings on record: 12 days, indomethacin 50 μM, others 10 μM. The protocol:
as §1, §2
MSC cells were cultured as described in Example 2. With the exception that indomethacin (50 μM; 17378 from Sigma Aldrich) was replaced with one of the following three PPARΥ agonists to test their efficiency: magnolol (M3445 from Sigma Aldrich) at 10 μM; honokiol (H4914 from Sigma Aldrich) at 10 μM and amorfrutin B (SMB00532 from Sigma Aldrich) at 10 μM.
`C=CCc1ccc(O)c(-c2ccc(O)c(CC=C)c2)c1` [honokiol]: the “adipogenic differentiation in DMAD with this PPARγ agonist” value (shortened to “adipogenic differentiation in DMAD”) is given as “able to undergo adipogenic differentiation”.

Turning to `COc1cc(CCc2ccccc2)c(C(=O)O)c(O)c1C/C=C(\C)CCC=C(C)C` [amorfrutin B], the “adipogenic differentiation in DMAD” value is given as “able to undergo adipogenic differentiation”.

For the molecule `COc1ccc2c(c1)c(CC(=O)O)c(C)n2C(=O)c1ccc(Cl)cc1` [indomethacin], the “adipogenic differentiation in DMAD” value is on record as “able to undergo adipogenic differentiation” and the “level of differentiation, ranking among the PPARγ agonists” value is on record as “highest level of differentiation”.

As for `C=CCc1ccc(O)c(-c2cc(CC=C)ccc2O)c1` [magnolol], the “adipogenic differentiation in DMAD” value is recorded as “able to undergo adipogenic differentiation” and the “level of differentiation, ranking among the PPARγ agonists” value is “highest level of differentiation”.

Source of the values: patent US20240344028A1, “Serum-free media for producing adipocytes for animal consumption” (Mosa Meat B.V., priority 2021, published 2024).
